Data: US20230226005A1, “Methods of Treating, Ameliorating, Shortening Duration, and/or Reversing Symptoms and/or Complications of a Coronavirus Infection” (Yale University, priority 2020, published 2023)

Test system: COVID-19 infection
Experiment: Phase IIa study: COVID-19 PRO daily self-score, symptom severity score (items 1-33, 0-132)
Assay type: in vivo

## CN(C)C(=O)COC(=O)Cc1ccc(OC(=O)c2ccc(NC(=N)N)cc2)cc1 [camostat, 4-[[4-[(Aminoiminomethyl)amino]benzoyl]oxy]benzeneacetic acid 2-(dimethylamino)-2-oxoethyl ester]
COVID-19 PRO self-score, vs placebo
  acceleration of COVID-19 symptom resolution: up to 5 days
Day 0
  COVID-19 symptom severity score raw Mean: 34.9
  symptom score, Fitzmaurice mixed effects model, A: Camostat arm: 31.81 (2.17)
  symptom score, Fitzmaurice mixed effects model, B − A (placebo − camostat): 0
  symptom severity score, Negative binomial model, A: Camostat arm: 31.81 (2.56)
  symptom severity score, Negative binomial model, B − A: 0
Day 1
  COVID-19 symptom severity score raw Mean: 30.4
  symptom score, Fitzmaurice mixed effects model, A: Camostat arm: 27.95 (2.59)
  symptom score, Fitzmaurice mixed effects model, B − A (placebo − camostat): −0.73 (2.76)
  symptom severity score, ANCOVA linear mixed model, A: Camostat arm: −2.93 (2.11)
  symptom severity score, ANCOVA linear mixed model, B − A (placebo − camostat): −1.83 (2.99)
  symptom severity score, Negative binomial model, A: Camostat arm: 28.22 (3.06)
  symptom severity score, Negative binomial model, B − A: 0.95 (0.1)
Day 2
  COVID-19 symptom severity score raw Mean: 29.7
  symptom score, Fitzmaurice mixed effects model, A: Camostat arm: 26.89 (2.63)
  symptom score, Fitzmaurice mixed effects model, B − A (placebo − camostat): −3.09 (2.8)
  symptom severity score, ANCOVA linear mixed model, A: Camostat arm: −3.96 (2.16)
  symptom severity score, ANCOVA linear mixed model, B − A (placebo − camostat): −4.22 (3.02)
  symptom severity score, Negative binomial model, A: Camostat arm: 27.28 (3.05)
  symptom severity score, Negative binomial model, B − A: 0.85 (0.1)
Day 3
  COVID-19 symptom severity score raw Mean: 24.1
  symptom score, Fitzmaurice mixed effects model, A: Camostat arm: 22.97 (2.6)
  symptom score, Fitzmaurice mixed effects model, B − A (placebo − camostat): −0.36 (2.79)
  symptom severity score, ANCOVA linear mixed model, A: Camostat arm: −8.01 (2.13)
  symptom severity score, ANCOVA linear mixed model, B − A (placebo − camostat): −1.34 (3.01)
  symptom severity score, Negative binomial model, A: Camostat arm: 23.35 (3.02)
  symptom severity score, Negative binomial model, B − A: 0.96 (0.13)
Day 4
  COVID-19 symptom severity score raw Mean: 20.8
  symptom score, Fitzmaurice mixed effects model, A: Camostat arm: 19.69 (2.6)
  symptom score, Fitzmaurice mixed effects model, B − A (placebo − camostat): 0.89 (2.8)
  symptom severity score, ANCOVA linear mixed model, A: Camostat arm: −11.29 (2.13)
  symptom severity score, ANCOVA linear mixed model, B − A (placebo − camostat): −0.1 (3.02)
  symptom severity score, Negative binomial model, A: Camostat arm: 20.17 (2.89)
  symptom severity score, Negative binomial model, B − A: 1 (0.17)
Day 5
  COVID-19 symptom severity score raw Mean: 17.7
  symptom score, Fitzmaurice mixed effects model, A: Camostat arm: 16.57 (2.6)
  symptom score, Fitzmaurice mixed effects model, B − A (placebo − camostat): 5.84 (2.79)
  symptom severity score, ANCOVA linear mixed model, A: Camostat arm: −14.41 (2.13)
  symptom severity score, ANCOVA linear mixed model, B − A (placebo − camostat): 4.84 (3.01)
  symptom severity score, Negative binomial model, A: Camostat arm: 17.14 (2.63)
  symptom severity score, Negative binomial model, B − A: 1.27 (0.24)
Day 6
  COVID-19 symptom severity score raw Mean: 14.1
  symptom score, Fitzmaurice mixed effects model, A: Camostat arm: 12.53 (2.62)
  symptom score, Fitzmaurice mixed effects model, B − A (placebo − camostat): 6.9 (2.81)
  symptom severity score, ANCOVA linear mixed model, A: Camostat arm: −18.43 (2.15)
  symptom severity score, ANCOVA linear mixed model, B − A (placebo − camostat): 5.89 (3.02)
  symptom severity score, Negative binomial model, A: Camostat arm: 13.4 (2.45)
  symptom severity score, Negative binomial model, B − A: 1.38 (0.29)
Day 7
  COVID-19 symptom severity score raw Mean: 12.6
  symptom score, Fitzmaurice mixed effects model, A: Camostat arm: 11.37 (2.67)
  symptom score, Fitzmaurice mixed effects model, B − A (placebo − camostat): 4.68 (2.84)
  symptom severity score, ANCOVA linear mixed model, A: Camostat arm: −19.64 (2.2)
  symptom severity score, ANCOVA linear mixed model, B − A (placebo − camostat): 3.71 (3.05)
  symptom severity score, Negative binomial model, A: Camostat arm: 12.09 (2.79)
  symptom severity score, Negative binomial model, B − A: 1.23 (0.3)
Day 8
  COVID-19 symptom severity score raw Mean: 11.4
  symptom score, Fitzmaurice mixed effects model, A: Camostat arm: 9.57 (2.67)
  symptom score, Fitzmaurice mixed effects model, B − A (placebo − camostat): 5.4 (2.85)
  symptom severity score, ANCOVA linear mixed model, A: Camostat arm: −21.42 (2.2)
  symptom severity score, ANCOVA linear mixed model, B − A (placebo − camostat): 4.43 (3.06)
  symptom severity score, Negative binomial model, A: Camostat arm: 10.6 (2.64)
  symptom severity score, Negative binomial model, B − A: 1.28 (0.34)
Day 9
  COVID-19 symptom severity score raw Mean: 10.7
  symptom score, Fitzmaurice mixed effects model, A: Camostat arm: 8.86 (2.67)
  symptom score, Fitzmaurice mixed effects model, B − A (placebo − camostat): 5.13 (2.85)
  symptom severity score, ANCOVA linear mixed model, A: Camostat arm: −22.13 (2.2)
  symptom severity score, ANCOVA linear mixed model, B − A (placebo − camostat): 4.16 (3.06)
  symptom severity score, Negative binomial model, A: Camostat arm: 9.94 (2.43)
  symptom severity score, Negative binomial model, B − A: 1.25 (0.33)
Day 10
  COVID-19 symptom severity score raw Mean: 10
  symptom score, Fitzmaurice mixed effects model, A: Camostat arm: 8.24 (2.67)
  symptom score, Fitzmaurice mixed effects model, B − A (placebo − camostat): 4.67 (2.85)
  symptom severity score, ANCOVA linear mixed model, A: Camostat arm: −22.75 (2.2)
  symptom severity score, ANCOVA linear mixed model, B − A (placebo − camostat): 3.7 (3.06)
  symptom severity score, Negative binomial model, A: Camostat arm: 9.36 (2.56)
  symptom severity score, Negative binomial model, B − A: 1.2 (0.36)
Day 11
  COVID-19 symptom severity score raw Mean: 9.3
  symptom score, Fitzmaurice mixed effects model, A: Camostat arm: 7.25 (2.69)
  symptom score, Fitzmaurice mixed effects model, B − A (placebo − camostat): 4.44 (2.87)
  symptom severity score, ANCOVA linear mixed model, A: Camostat arm: −23.77 (2.22)
  symptom severity score, ANCOVA linear mixed model, B − A (placebo − camostat): 3.5 (3.08)
  symptom severity score, Negative binomial model, A: Camostat arm: 8.49 (2.3)
